The target of data set [1] is T1, Tumor necrosis factor (Homo sapiens, UniProt P01375).
Description: Binding affinity to biotinylated human TNFalpha trimer (77 to 233 residues) expressed in Escherichia coli BL21(DE3) by SPR analysis
The target in data set [2] is T1, Tumor necrosis factor. This is another data set of the same source.
Description: Inhibition of probe-5 binding to human TNFalpha (77 to 233 residues) at 1 nM by fluorescence polarization assay
Data set [3] can be described thus: Half life in CD1 mouse at 1 mg/kg, iv after 24 hrs by HPLC-MS/MS analysis. It counts as ADME, organism-based. Particulars: in vivo.
Data set [4] is described as follows: Volume of distribution at steady state in CD1 mouse at 1 mg/kg, iv after 24 hrs by HPLC-MS/MS analysis. In kind it is ADME, organism-based. Conditions: in vivo, read-out: Vdss.
Data set [5] can be described thus: AUC in CD1 mouse at 1 mg/kg, iv after 24 hrs by HPLC-MS/MS analysis. In kind it is ADME, organism-based. Details: route intravenous, dose 1 mg/kg, time 24 hrs. Conditions: in vivo.
A short description of data set [6]: Blood clearance in CD1 mouse at 1 mg/kg, iv after 24 hrs by HPLC-MS/MS analysis. It counts as ADME, organism-based.
Data set [7] in a line: Unbound clearance in CD1 mouse at 1 mg/kg, iv after 24 hrs by HPLC-MS/MS analysis. It counts as ADME, organism-based. Conditions: in vivo.
Data set [8] in a line: Half life in CD1 mouse at 1 mg/kg, po after 24 hrs by HPLC-MS/MS analysis. It counts as ADME, organism-based. Conditions: in vivo.
Data set [9] is described as follows: Cmax in CD1 mouse at 1 mg/kg, po after 24 hrs by HPLC-MS/MS analysis. In kind it is ADME, organism-based. Details: route oral, dose 1 mg/kg, time 24 hrs. Particulars: in vivo.
Data set [10] is described as follows: Tmax in CD1 mouse at 1 mg/kg, po after 24 hrs by HPLC-MS/MS analysis. In kind it is ADME, organism-based. Conditions: in vivo.
Data set [11] is described as follows: AUC in CD1 mouse at 1 mg/kg, po after 24 hrs by HPLC-MS/MS analysis. In kind it is ADME, organism-based. Also on record: route oral, time 24 hrs, dose 1 mg/kg. Conditions: in vivo.
A short description of data set [12]: Unbound AUC in CD1 mouse at 1 mg/kg, po after 24 hrs by HPLC-MS/MS analysis. It counts as ADME, organism-based. Conditions: in vivo.
Data set [13] is described as follows: Oral bioavailability in CD1 mouse at 1 mg/kg after 24 hrs by HPLC-MS/MS analysis. In kind it is ADME, organism-based. Conditions: in vivo.
The test system of a further data set is Mus musculus. Nature of the data set: Antiarthritic activity in DBA/J mouse model of CFA and glucose-6-phosphate isomerase-induced arthritis model assessed as inhibition of paw swelling at 30 to 100 mg/kg, po BID beginning 1 hr prior to GPI immunization and measured on days 13, 15, and 17 after GPI immunization. It counts as functional, organism-based. Particulars: dose 30-100 mg/kg, time 13-17 day.

Data set [14] can be described thus: Drug uptake in DBA/J mouse model of CFA and glucose-6-phosphate isomerase-induced arthritis model at 10 to 100 mg/kg, po BID beginning 1 hr prior to GPI immunization and measured up to day 17 after GPI immunization by HPLC-MS/MS analysis. Particulars: in vivo, 408 h, dose 10-100 mg/kg, time 17 day. It counts as ADME, organism-based.
The nature of data set [15]: Cmax in DBA/J mouse model of CFA and glucose-6-phosphate isomerase-induced arthritis model at 10 mg/kg, po BID beginning 1 hr prior to GPI immunization and measured up to day 17 after GPI immunization by HPLC-MS/MS analysis. Conditions: in vivo. In kind it is ADME, organism-based. Details: route oral, time 17 day, dose 10 mg/kg.
Data set [16] is described as follows: Cmax in DBA/J mouse model of CFA and glucose-6-phosphate isomerase-induced arthritis model at 30 mg/kg, po BID beginning 1 hr prior to GPI immunization and measured up to day 17 after GPI immunization by HPLC-MS/MS analysis. In kind it is ADME, organism-based. Details: route oral, time 17 day, dose 30 mg/kg. Conditions: in vivo.
Data set [17] can be described thus: Cmax in DBA/J mouse model of CFA and glucose-6-phosphate isomerase-induced arthritis model at 100 mg/kg, po BID beginning 1 hr prior to GPI immunization and measured up to day 17 after GPI immunization by HPLC-MS/MS analysis. In kind it is ADME, organism-based. Details: route oral, time 17 day, dose 100 mg/kg. Particulars: in vivo.
Data set [18] can be described thus: AUC (0 to 12 hrs) in DBA/J mouse model of CFA and glucose-6-phosphate isomerase-induced arthritis model at 10 mg/kg, po BID beginning 1 hr prior to GPI immunization and measured up to day 17 after GPI immunization by HPLC-MS/MS analysis. In kind it is ADME, organism-based. Details: route oral, time 17 day, dose 10 mg/kg. Particulars: in vivo.
Data set [19] is described as follows: AUC (0 to 12 hrs) in DBA/J mouse model of CFA and glucose-6-phosphate isomerase-induced arthritis model at 30 mg/kg, po BID beginning 1 hr prior to GPI immunization and measured up to day 17 after GPI immunization by HPLC-MS/MS analysis. In kind it is ADME, organism-based. Conditions: in vivo. Details: route oral, time 17 day, dose 30 mg/kg.
Data set [20] is described as follows: AUC (0 to 12 hrs) in DBA/J mouse model of CFA and glucose-6-phosphate isomerase-induced arthritis model at 100 mg/kg, po BID beginning 1 hr prior to GPI immunization and measured up to day 17 after GPI immunization by HPLC-MS/MS analysis. It counts as ADME, organism-based. Details: route oral, dose 100 mg/kg, time 17 day. Particulars: in vivo.
Data set [21] is described as follows: Selectivity index, ratio of Cmax in DBA/J mouse model of CFA and glucose-6-phosphate isomerase-induced arthritis model at 10 mg/kg, po BID beginning 1 hr prior to GPI immunization and measured up to day 17 after GPI immunization by HPLC-MS/MS analysis to EC50 for inhibition of TNFalpha in mouse L929 cells exposed to compound incubated for 1 hr with mouse TNFalpha by luminescence based assay. Conditions: time 17 day.

A short description of data set [22]: Selectivity index, ratio of Cmax in DBA/J mouse model of CFA and glucose-6-phosphate isomerase-induced arthritis model at 30 mg/kg, po BID beginning 1 hr prior to GPI immunization and measured up to day 17 after GPI immunization by HPLC-MS/MS analysis to EC50 for inhibition of TNFalpha in mouse L929 cells exposed to compound incubated for 1 hr with mouse TNFalpha by luminescence based assay. Conditions: time 17 day.

Data set [23] in a line: Selectivity index, ratio of Cmax in DBA/J mouse model of CFA and glucose-6-phosphate isomerase-induced arthritis model at 100 mg/kg, po BID beginning 1 hr prior to GPI immunization and measured up to day 17 after GPI immunization by HPLC-MS/MS analysis to EC50 for inhibition of TNFalpha in mouse L929 cells exposed to compound incubated for 1 hr with mouse TNFalpha by luminescence based assay.

In data set [24] the target is T1, Tumor necrosis factor. The source holds these as a separate data set.
Description: Binding affinity to biotinylated human TNFalpha trimer (77 to 233 residues) expressed in Escherichia coli BL21(DE3) assessed as binding half life by SPR analysis
The target in data set [25] is T1, Tumor necrosis factor. This is another data set of the same source.
Description: Induction of stabilization of biotinylated human TNFalpha trimer (77 to 233 residues) expressed in Escherichia coli BL21(DE3) assessed as change in melting temperature
Data set [26] has as its target T1, Tumor necrosis factor. Particulars: dose 1.0 nM, TDE = time-dependent effect.
Data set [27] is described as follows: Intrinsic clearance in mouse liver microsomes. It counts as ADME, Microsome. Conditions: read-out: CLH (converted).
Data set [28] is described as follows: Intrinsic clearance in human liver microsomes. In kind it is ADME, Microsome. Conditions: read-out: CLH (converted).
The nature of data set [29]: Solubility in phosphate buffer at pH 7.4. In kind it is physicochemical.
The nature of data set [30]: Fraction unbound in plasma (unknown origin). In kind it is ADME, cell-free.

pIC50, pKd: −log10 of the molar value. Values after ≈ are worked out from the molar mass of the structure shown. Active and inactive are the calls of the source. The calls are words filed in the database; no cut-off is given here.

T1 sequence (P01375 whole entry): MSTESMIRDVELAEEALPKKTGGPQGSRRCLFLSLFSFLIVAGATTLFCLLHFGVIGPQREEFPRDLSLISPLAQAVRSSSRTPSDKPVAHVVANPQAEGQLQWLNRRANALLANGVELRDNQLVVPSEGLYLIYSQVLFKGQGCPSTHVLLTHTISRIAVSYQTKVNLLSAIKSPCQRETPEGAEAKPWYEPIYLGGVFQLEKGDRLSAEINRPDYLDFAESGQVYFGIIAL

Consider `Cc1nc2ccccc2n1Cc1ccccc1`, for which the pKd at Tumor necrosis factor [1] is 3.49.
Consider `c1ccc(-c2cccc3ccncc23)cc1`, for which, on Tumor necrosis factor [1], the negative-log Kd (pKd) was 4.22. Moreover, at Tumor necrosis factor [2], the pIC50 was 4.60.
For the compound `CC1(C)C(=O)c2ccc(-c3cnc(N4CCN5C(=O)NC[C@@H]5C4)nc3)cc2N1Cc1cccnc1C#N`, the results for the half-life in [3] and in data set [8] were 1.1 h and 1.6 h, respectively. In addition, the Vd in [4] was found to be 2.12 L/kg. Besides, the figures for the AUC at 24 h in [5] and in data set [11] were 0.523 µg·h/mL and 0.263 µg·h/mL, respectively. In data set [6], the clearance was 1.92 L/h/kg. This compound gave a CL free in data set [7] of 11.9 L/h/kg. Besides, the Cmax in data set [9] amounted to 0.0817 µg/mL; in data set [15], 0.767 µg/mL; in data set [16] it was 2.98 µg/mL; in data set [17], 6.19 µg/mL. The time to peak (Tmax) in data set [10] came to 1 h. In addition, the fAUC in data set [12] came to 0.0424 µg·h/mL. Moreover, the bioavailability in data set [13] is 50.4%. Moreover, in the data set with Mus musculus, the outcome was Active. Further, the Drug uptake entry in data set [14] is listed as “Dose-dependent effect”. Further, the values for the AUC at 408 h in data set [18], in data set [19] and in [20] were 3.83 µg·h/mL, 10.2 µg·h/mL and 46.3 µg·h/mL, respectively. Moreover, the Ratio in data set [21] is given as 2.1; in data set [22] it was 8.3; in data set [23], 17. The negative-log Kd (pKd) at Tumor necrosis factor [1] is 8.17. Also, at Tumor necrosis factor [2], the pIC50 was 7.15. For the same compound, the T1/2 on Tumor necrosis factor [24] was found to be 0.9 h.
On to `CN1CCN(Cc2ccc(-c3c[nH]c4ccncc34)c(OCCc3ccc(-c4cccc5ccncc45)cc3)c2)CC1`, for which the negative-log Kd (pKd) at Tumor necrosis factor [1] was 8.62. The negative-log IC50 (pIC50) against Tumor necrosis factor [2] is 7.54. In addition, on Tumor necrosis factor [25], the ΔTm was above 15 °C.
As for `O=C(NCCOCCOCCOCc1ccc(-c2cccc3ccncc23)c(OCCc2ccc(-c3cccc4ccncc34)cc2)c1)c1ccc2c(c1)C(=O)OC21c2cc(F)c(O)cc2Oc2cc(O)c(F)cc21`, the Activity entry at Tumor necrosis factor [26] was “Tde”.
On Tumor necrosis factor [1], `c1ccc(Cn2cnc3ccccc32)cc1` gave a pKd of 3.52. Also, on Tumor necrosis factor [2], the negative-log IC50 (pIC50) was 3.69.
Compound `c1ccc(-c2cccc3ccncc23)c(OCCc2ccc(-c3cccc4ccncc34)cc2)c1` had a negative-log Kd (pKd) on Tumor necrosis factor [1] of 7.13. On Tumor necrosis factor [2], this compound gave a negative logarithm of the IC50 (pIC50) of 5.87. In addition, on Tumor necrosis factor [25], the shift in melting temperature (ΔTm) amounted to 7 °C.
Taken in the same sequence, the figures for `N#CCc1ccc(-c2cccc3ccncc23)cc1` were 5.57, 5.10 and 4 °C.
Turning to `C[C@@H]1CN(c2ncc(-c3ccc4c(c3)N(Cc3ccccc3OC(F)F)C(C)(C)C4=O)cn2)CCN1C(=O)CO`, the CLint scaled in data set [27] is 101 L/h/kg; in data set [28], 137 L/h/kg. This compound also came in with a solubility in data set [29] of 1.2 µM (≈ 0.662 µg/mL). Also, the free fraction (fraction unbound) in data set [30] turned out to be 0.00293. For the same compound, the half-life in data set [3] was 4.4 h; in [8], 4.7 h. Also, the Vd in data set [4] came to 2.12 L/kg. Also, the results for the AUC at 24 h in data set [5] and in data set [11] were 3.11 µg·h/mL and 2.34 µg·h/mL, respectively. Also, the clearance in data set [6] was 0.369 L/h/kg. Besides, the CL free in data set [7] was 126 L/h/kg. The compound further yielded a Cmax in [9] of 0.2 µg/mL. For the same compound, the Tmax in data set [10] worked out at 1.8 h. In data set [12], the fAUC was determined as 0.00686 µg·h/mL. This compound also showed a bioavailability in data set [13] of 75.4%. The compound also had a pKd on Tumor necrosis factor [1] of 8.89. On Tumor necrosis factor [2], this compound showed a pIC50 of 6.72. This compound also displayed a T1/2 on Tumor necrosis factor [24] of 42.8 h.
As to `C[C@@H]1CN(c2ncc(-c3ccc4c(c3)N(Cc3cccnc3C#N)C(C)(C)C4=O)cn2)CCN1C(=O)CO`, the concentration in solution in data set [29] (solubility) was 48.4 µM (≈ 24.8 µg/mL). This compound registered a fraction unbound in data set [30] of 0.137. Also, the half-life was 1.4 h in data set [3] and 2 h in data set [8]. The Vd in data set [4] was 17.3 L/kg. Also, the AUC at 24 h in [5] was 0.124 µg·h/mL; in [11], 0.0627 µg·h/mL. In [6], this compound gave a clearance of 8.77 L/h/kg. Besides, the CL free in data set [7] stood at 57.3 L/h/kg. The compound also returned a Cmax in data set [9] of 0.0167 µg/mL. In addition, the Tmax in [10] was determined as 1 h. The fAUC in data set [12] worked out at 0.0096 µg·h/mL. This compound registered a bioavailability in data set [13] of 50.8%. This compound showed a pKd at Tumor necrosis factor [1] of 8.14. On Tumor necrosis factor [2], this compound showed a negative-log IC50 (pIC50) of 6.79. On Tumor necrosis factor [24], this compound gave a T1/2 of 62.3 h.
Compound `Cc1ccc(Cn2cnc3ccccc32)c(C)c1` gave a pKd on Tumor necrosis factor [1] of 3.97.

The record behind these values is ChEMBL document CHEMBL4765484, “Development of Orally Efficacious Allosteric Inhibitors of TNFα via Fragment-Based Drug Design” (J Med Chem, 2021).
